For ten molecules, IC50 results are on record in patent publication US10189839B2, “Tricyclic imidazole compounds as inhibitors of tryptophan hydroxylase” (ACTELION PHARMACEUTICALS LTD, priority 2013, dated 2019).

The target in the first assay is T1, full length human TPH1 (Homo sapiens, UniProt P17752).
T1 construct: To generate the enzyme, full length human TPH1 is cloned into the plasmid pET20b(+); made in house; host or cells: E. coli
T1 sequence (P17752 1-444): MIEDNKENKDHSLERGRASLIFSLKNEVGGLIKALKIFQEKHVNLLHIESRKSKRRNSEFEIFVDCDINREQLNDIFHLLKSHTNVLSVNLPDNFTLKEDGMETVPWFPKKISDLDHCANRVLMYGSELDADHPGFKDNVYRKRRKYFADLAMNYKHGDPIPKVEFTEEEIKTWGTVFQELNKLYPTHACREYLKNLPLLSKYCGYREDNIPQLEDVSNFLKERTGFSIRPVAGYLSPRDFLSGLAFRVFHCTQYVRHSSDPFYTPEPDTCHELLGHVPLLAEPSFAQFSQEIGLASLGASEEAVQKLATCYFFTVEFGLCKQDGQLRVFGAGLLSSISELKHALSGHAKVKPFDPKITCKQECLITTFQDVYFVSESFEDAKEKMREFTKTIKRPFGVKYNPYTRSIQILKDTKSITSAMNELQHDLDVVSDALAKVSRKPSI
Kind of assay: Biochemical in vitro assay using fluorescence readout (TPH1 enzyme activity). To be noted: Table 1, mean where determined several times. An outline of the steps:
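IC50 (mean of repeats) derived from 5-hydroxy-L-tryptophan fluorescence at 540 nm (300 nm excitation) relative to vehicle, after perchloric acid stop. Reaction: 60 min, 15° C., pH 7.6 Tris-HCl, 40 μM L-tryptophan, 100 μM 6-methyltetrahydropterine, DTT, catalase, with 40-80 nM purified full-length human TPH1 from E. coli.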
As usually defined, the IC50 is the concentration that gives 50% inhibition. Lower therefore signals higher potency. In turn, `N#Cc1ccc(OCC(=O)N2CCc3nc4n(c3C2c2ccc(C3CC3)cc2F)CCNC4)c(Cl)c1` (stereo not shown) [Example 5.2.9, 3-chloro-4-(2-(1-(4-cyclopropyl-2-fluorophenyl)-3,4,6,7,8,9-hexahydropyrido[4′,3′:4,5]imidazo[1,2-a]pyrazin-2(1H)-yl)-2-oxoethoxy)benzonitrile] displayed a 50% inhibitory concentration (IC50) of 0.092 µM.

Turning to `O=C(COc1cccnc1C(F)(F)F)N1CCc2nc3n(c2C1c1ccc(C2CC2)cc1F)CCNC3` (stereo not shown) [Example 5.2.10, 1-(1-(4-cyclopropyl-2-fluorophenyl)-3,4,6,7,8,9-hexahydropyrido[4′,3′:4,5]imidazo[1,2-a]pyrazin-2(1H)-yl)-2-((2-(trifluoromethyl)pyridin-3-yl)oxy)ethanone], the midpoint of inhibition, the IC50, lay at 0.05 µM.

`N#Cc1ccc(OCC(=O)N2CCc3nc4n(c3C2c2ccc(C3CC3)cc2F)CCNC4)c(Cl)n1` (stereo not shown) [Example 5.2.11, 6-chloro-5-(2-(1-(4-cyclopropyl-2-fluorophenyl)-3,4,6,7,8,9-hexahydropyrido[4′,3′:4,5]imidazo[1,2-a]pyrazin-2(1H)-yl)-2-oxoethoxy)picolinonitrile] returned an IC50 of 0.108 µM.

`CC(=O)N1CCn2c(nc3c2C(c2ccc(C4CC4)cc2F)N(C(=O)COc2ccc(N4CC(F)(F)C4)nc2Cl)CC3)C1` (stereo not shown) [Example 5.2.12, 1-(7-acetyl-1-(4-cyclopropyl-2-fluorophenyl)-3,4,6,7,8,9-hexahydropyrido[4′,3′:4,5]imidazo[1,2-a]pyrazin-2(1H)-yl)-2-((2-chloro-6-(3,3-difluoroazetidin-1-yl)pyridin-3-yl)oxy)ethanone]: the midpoint of inhibition, the IC50, lay at 0.006 µM.

`CC(=O)N1CCn2c(nc3c2C(c2ccc(C4CC4)cc2F)N(C(=O)COc2ccc(C(=O)N(C)C)nc2Cl)CC3)C1` (stereo not shown) [Example 5.2.13, 5-(2-(7-acetyl-1-(4-cyclopropyl-2-fluorophenyl)-3,4,6,7,8,9-hexahydropyrido[4′,3′:4,5]imidazo[1,2-a]pyrazin-2(1H)-yl)-2-oxoethoxy)-6-chloro-N,N-dimethylpicolinamide] registered an IC50 of 0.004 µM. Against the preceding molecule, the IC50 is about 1.5-fold lower.

With `CC(=O)N1CCn2c(nc3c2C(c2ccc(C4CC4)cc2F)N(C(=O)COc2cccnc2Cl)CC3)C1` (stereo not shown) [Example 5.2.14, 1-(7-acetyl-1-(4-cyclopropyl-2-fluorophenyl)-3,4,6,7,8,9-hexahydropyrido[4′,3′:4,5]imidazo[1,2-a]pyrazin-2(1H)-yl)-2-((2-chloropyridin-3-yl)oxy)ethanone], the IC50 amounted to 0.028 µM.

Molecule `CC(=O)N1CCn2c(nc3c2C(c2ccc(C4CC4)cc2F)N(C(=O)COc2cccnc2C(F)(F)F)CC3)C1` (stereo not shown) [Example 5.2.15, 1-(7-acetyl-1-(4-cyclopropyl-2-fluorophenyl)-3,4,6,7,8,9-hexahydropyrido[4′,3′:4,5]imidazo[1,2-a]pyrazin-2(1H)-yl)-2-((2-(trifluoromethyl)pyridin-3-yl)oxy)ethanone] gave an IC50 of 0.01 µM. Against the preceding molecule, the IC50 is about 2.8-fold lower.

Consider `CC(=O)N1CCn2c(nc3c2C(c2ccc(C4CC4)cc2F)N(C(=O)COc2cc(F)cnc2Cl)CC3)C1` (stereo not shown) [Example 5.2.16, 1-(7-acetyl-1-(4-cyclopropyl-2-fluorophenyl)-3,4,6,7,8,9-hexahydropyrido[4′,3′:4,5]imidazo[1,2-a]pyrazin-2(1H)-yl)-2-((2-chloro-5-fluoropyridin-3-yl)oxy)ethanone], for which the IC50 came to 0.025 µM.

In turn, `CCc1nc(C)ccc1OCC(=O)N1CCc2nc3n(c2C1c1ccc(C2CC2)cc1F)CCN(C(C)=O)C3` (stereo not shown) [Example 5.2.17, 1-(7-acetyl-1-(4-cyclopropyl-2-fluorophenyl)-3,4,6,7,8,9-hexahydropyrido[4′,3′:4,5]imidazo[1,2-a]pyrazin-2(1H)-yl)-2-((2-ethyl-6-methylpyridin-3-yl)oxy)ethanone] showed an IC50 of 0.011 µM.

Staying with this assay, now noted: Table 2.
The molecule `CN(C)C(=O)c1csc(C2c3c(nc4n3CCNC4)CCN2C(=O)COc2ccc(N3CCOCC3)nc2Cl)c1` (stereo not shown) [Example 5.3.1, 5-(2-(2-((2-Chloro-6-morpholinopyridin-3-yl)oxy)acetyl)-1,2,3,4,6,7,8,9-octahydropyrido[4′,3′:4,5]imidazo[1,2-a]pyrazin-1-yl)-N,N-dimethylthiophene-3-carboxamide] gave an IC50 of 0.094 µM.
